Experiments:
Type in all cases: in vivo
Set-up in all cases: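 index 0 to 10 in 10% steps of herbicidal effect with 10 meaning complete death and 0 below 10%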
[1] = system: Monochoria vaginalis; test: Herbicidal activity by paddy field soil treatment (Test Example 1); details: 1000 g of effective component per hectare, evaluated on day 21 after the treatment, criteria of Table 72
Experimental: (§1) Test for Determining Herbicidal Activity by Paddy Field Soil Treatment A 100 cm^2 wide plastic pot was filled with a paddy field soil and, after watering and shuffling, seeds of each of Echinochloa oryzicola, Monochoria vaginalis, and Scirpus juncoides Rocxb. were sowed and watered to a depth of 3 cm. On the next day, the wettable powder obtained in view of Formulation example 1 was diluted with water and applied on water surface. The application amount was 1000 g of effective component per hectare. After that, the plants were cultivated in a greenhouse, and on day 21 after the treatment, evaluation was made by the criteria of Table 72 for determining the herbicidal effects. [table]

[2] = system: Scirpus juncoides Rocxb.; test: as above; details: applied on water surface, 1000 g of effective component per hectare, day 21 after the treatment
Experimental: as §1

[3] = system: Indian millet; test: Herbicidal activity by field soil treatment (Test example 2); details: 1000 g effective component per hectare, day 21 after the treatment
Experimental: (§2) [table] Test for Determining Herbicidal Activity by Field Soil Treatment A 80 cm^2 wide plastic pot was filled with a field soil and seeds of each of Echinochloa crus-galli, foxtail, Indian millet, and A. retroflexus were sowed and then covered with soil. The wettable powder produced with reference to the Formulation example 1 was diluted water, and applied on the soil surface by using a small sprayer in an amount of 1000 liters per hectare so that the effective component is 1000 g per hectare. After that, the plants were cultivated in a greenhouse, and on day 21 after the treatment, evaluation was made by the criteria described in Table 72 for determining the herbicidal effects.

[4] = system: A. retroflexus; test: Herbicidal activity by field foliage treatment (Test example 3); details: 1000 g effective component per hectare, day 14 after the treatment
Experimental: (§3) [table] Test for Determining Herbicidal Activity by Field Foliage Treatment A 80 cm^2 wide plastic pot was filled with a field soil and seeds of each of Indian millet and A. retroflexus were sowed and then incubated for 2 weeks in a green house. The wettable powder produced with reference to the Formulation example 1 was diluted water, and applied from the air to entire body of the plant as foliage treatment by using a small sprayer in an amount of 1000 liters per hectare so that the effective component is 1000 g per hectare. After that, the plants were cultivated in a greenhouse, and on day 14 after the treatment, evaluation was made by the criteria described in Table 72 for determining the herbicidal effects.

[5] = system: Indian millet; test: as above; details: 1000 g effective component per hectare, day 14 after the treatment
Experimental: as §3

[6] = system: Echinochloa oryzicola; test: Herbicidal activity by paddy field soil treatment (Test Example 1); details: 1000 g of effective component per hectare, evaluated on day 21 after the treatment, criteria of Table 72
Experimental: as §1

[7] = system: A. retroflexus; test: Herbicidal activity by field soil treatment (Test example 2); details: 1000 g effective component per hectare, day 21 after the treatment
Experimental: as §2

[8] = system: Echinochloa crus-galli; test: Herbicidal activity by field foliage treatment (Test example 3); details: 1000 g effective component per hectare, day 14 after the treatment
Experimental: as §3, with “Test example 3” for “[table]”

Row | SMILES | Herbicidal effects index number, Monochoria vaginalis [1] | herbicidal effect index, S. juncoides Rocxb. [2] | herbicidal effect index, Abutilon theophrasti [3] | herbicidal effect index, Amaranthus retroflexus [4] | herbicidal effect index, Abutilon theophrasti [5] | Herbicidal effects index number, Echinochloa oryzicola [6] | herbicidal effect index, Amaranthus retroflexus [7] | herbicidal effect index, Echinochloa crus-galli [8]
1 | C=Cc1ccc(-n2c(=O)c(C(=O)C3=C(O)CCCC3=O)nn(C)c2=O)nc1 [I-293] | 10 | 10 | 10 | 10 | 8 |  |  | 
2 | Cc1cc(C)c(-n2c(=O)c(C(=O)C3=C(O)CCCC3=O)nn(C)c2=O)c(C)c1 [I-472] | 10 | 8 |  | 10 | 7 |  |  | 
3 | Cn1nc(C(=O)C2=C(O)CCCC2=O)c(=O)n(-c2c(F)c(F)c(F)c(F)c2F)c1=O [I-473] | 10 | 8 |  | 3 | 10 | 8 |  | 
4 | COc1ccc(-n2c(=O)c(C(=O)C3=C(O)CCCC3=O)nn(C)c2=O)cc1 [Compound I-62] | 8 |  |  | 10 | 9 |  |  | 
5 | CCCCn1c(=O)c(C(=O)C2=C(O)CCCC2=O)nn(-c2ccccn2)c1=O [I-306] | 9 |  | 7 | 7 | 9 |  | 10 | 
6 | O=C1CCCC(O)=C1C(=O)c1nn(-c2ccccc2)c(=O)n(-c2ccccc2)c1=O [I-262] | 8 |  |  |  |  |  |  | 
7 | Cn1nc(C(=O)C2=C(O)CCCC2=O)c(=O)n(-c2cc(Cl)c(S(C)(=O)=O)c(Cl)c2)c1=O [I-301] | 10 | 10 |  | 10 | 7 | 10 |  | 
8 | CCCS(=O)(=O)Oc1c(C(=O)c2nn(C)c(=O)n(-c3ccccc3)c2=O)cnn1C(C)C [II-267, 1-isopropyl-4-(2-methyl-3,5-dioxo-4-phenyl-2,3,4,5-tetrahydro-1,2,4-triazine-6-ylcarbonyl)-1H-pyrazole-5-yl propane-1-sulfonate] | 8 |  |  |  | 9 |  |  | 
9 | CN(c1ccccc1)n1c(=O)c(C(=O)O)nn(C)c1=O [V-359] | 10 | 10 |  | 10 | 10 | 8 |  | 
10 | CCCCCCCCn1c(=O)c(C(=O)C2=C(O)CCCC2=O)nn(C)c1=O [I-295] |  |  |  | 8 | 9 |  |  | 
11 | COc1ccc(-n2c(=O)c(C(=O)C3=C(O)CCCC3=O)nn(C)c2=O)nc1 [I-290] | 10 | 10 | 10 | 10 | 9 |  | 8 | 
12 | Cn1ncc(C(=O)c2nn(C)c(=O)n(-c3ccccc3)c2=O)c1O [II-50, 6-(5-hydroxy-1-methyl-1H-pyrazole-4-carbonyl)-2-methyl-4-phenyl-1,2,4-triazine-3,5 (2H, 4H)-dione] | 8 | 7 |  | 10 | 8 |  |  | 
13 | Cn1nc(C(=O)C2=C(O)CCCC2=O)c(=O)n(CS(C)(=O)=O)c1=O [Compound I-47] | 10 | 10 |  | 10 | 9 |  | 10 | 
14 | Cc1cc(C)nc(-n2c(=O)c(C(=O)C3=C(O)CCCC3=O)nn(C)c2=O)n1 [I-467] | 10 | 10 |  | 10 | 7 |  |  | 8
15 | Cc1cc(-n2c(=O)c(C(=O)C3=C(O)CCCC3=O)nn(C)c2=O)no1 [I-189] | 10 | 10 | 10 | 10 | 9 |  | 10 | 
16 | Cn1nc(C(=O)O)c(=O)n(-c2c(F)c(F)c(F)c(F)c2F)c1=O [V-367] | 10 | 8 |  |  | 10 | 8 |  | 
17 | CCc1ccc(-n2c(=O)c(C(=O)C3=C(O)CCCC3=O)nn(C)c2=O)nc1 [I-462] | 10 | 10 | 10 | 10 | 10 |  | 9 | 
18 | Cc1cc(C)nc(-n2c(=O)c(C(=O)O)nn(C)c2=O)n1 [V-360] | 10 | 10 |  | 10 | 7 |  |  | 8
19 | CCCCCn1nc(C(=O)C2=C(O)CCCC2=O)c(=O)n(-c2ccccc2)c1=O [I-308] | 8 |  |  |  | 8 |  | 10 | 
20 | COc1cccc(-n2c(=O)c(C(=O)O)nn(C)c2=O)c1 [V-61] |  |  | 8 |  |  |  |  | 
21 | COc1cc(OC)cc(-n2c(=O)c(C(=O)C3=C(O)CCCC3=O)nn(C)c2=O)c1 [Compound I-94] | 10 | 10 | 10 | 10 | 10 |  | 10 | 
22 | CN(c1ccccc1)n1c(=O)c(C(=O)C2=C(O)CCCC2=O)nn(C)c1=O [I-466] | 10 | 10 |  | 10 | 10 | 8 |  | 
23 | Cc1cc(C)c(-n2c(=O)c(C(=O)O)nn(C)c2=O)c(C)c1 [V-366] | 10 | 8 |  | 10 | 7 |  |  | 
24 | Cn1nc(C(F)(F)F)cc1-n1c(=O)c(C(=O)C2=C(O)CCCC2=O)nn(C)c1=O [I-272] | 8 | 8 |  | 10 | 9 | 7 | 8 | 6
25 | Cc1ccc(-n2c(=O)c(C(=O)O)nn(C)c2=O)nc1 [V-361] | 10 | 10 | 10 | 10 | 9 |  | 8 | 
26 | Cc1ccc(-n2c(=O)c(C(=O)O)nn(C)c2=S)nc1 [V-291] | 8 |  |  |  |  |  |  | 
27 | Cn1nc(C(=O)C2=C(O)CCCC2=O)c(=O)n(N2CCS(=O)(=O)CC2)c1=O [I-204] | 8 |  |  | 7 |  |  |  | 
28 | Cn1nc(C(=O)C2=C(O)CCCC2=O)c(=O)n(Cc2ccccc2)c1=O [I-205] | 10 | 10 |  | 10 | 10 | 7 |  | 
